# Test results from patent US20260250318A1, “COMPOSITIONS AND METHODS FOR CROSSING THE BLOOD BRAIN BARRIER” (VOYAGER THERAPEUTICS, INC., priority 2022, published 2026).
# Test system: brain
# Assay: Maturation of TTM-001 capsid, NGS enrichment in brain of CD-1 Outbred mice
# Assay type: in vivo
# Settings: NGS fold-enrichment of TTM-001 matured AAV capsid variants in the brain of CD-1 Outbred mice; intravenous 1.0×10^12 VG/dose; 14 days in life; RNA; relative to non-matured TTM-001 control
# Procedure, shortened: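 Pooled matured TTM-001 or TTM-002 capsid libraries (loop IV region randomized by triple-codon or low-frequency point mutagenesis) dosed IV via tail vein at 1.0×10^12 VG/dose to three female CD-1 mice. Brain RNA taken after 14 days; RT-PCR and NGS gave fold enrichment versus parent TTM-001 or TTM-002 control.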
row,Sequence,Fold enrichment over TTM-001 [fold]
1,KTINGSGSPHSKLRLQQT,2.065
2,KTINGSGSPHSKLRMQQT,2.106
3,KTINGSGSPHSKLRNQQT,3.112
4,KTINGSGSPHSKLRPQQT,2.060
5,KTINGSGSPHSKLRRQQT,6.231
6,KTINGSGSPHSKLRSQQT,2.309
7,KTINGSGSPHSKLSKQQT,2.482
8,KTINGSGSPHSKLSRQQT,2.380
9,KTINGSGSPHSKLSWQQT,2.322
10,KTINGSGSPHSKLVRQQT,2.801
11,KTINGSGSPHSKLWLQQT,3.199
12,KTINGSGSPHSKLWSQQT,2.190
13,KTINGSGSPHSKLWTQQT,2.140
14,KTINGSGSPHSKLYMQQT,2.015
15,KTINGSGSPHSKMRAQQT,3.382
16,KTINGSGSPHSKMRPQQT,2.652
17,KTINGSGSPHSKNLRQQT,2.022
18,KTINGSGSPHSKNTRQQT,2.047
19,KTINGSGSPHSKNVRQQT,2.123
20,KTINGSGSPHSKPARQQT,2.538
21,KTINGSGSPHSKPLRQQT,2.844
22,KTINGSGSPHSKPRGQQT,2.147
23,KTINGSGSPHSKPRLQQT,3.337
24,KTINGSGSPHSKPRPQQT,2.352

row,Sequence,Fold enrichment over TTM-001 [fold]
1,KTINGSGSPHSKPRSQQT,2.235
2,KTINGSGSPHSKPRVQQT,2.441
3,KTINGSGSPHSKPSRQQT,2.438
4,KTINGSGSPHSKPTRQQT,3.201
5,KTINGSGSPHSKPVRQQT,2.529
6,KTINGSGSPHSKPWLQQT,2.138
7,KTINGSGSPHSKQRSQQT,2.395
8,KTINGSGSPHSKQRVQQT,2.117
9,KTINGSGSPHSKQSRQQT,2.156
10,KTINGSGSPHSKQTRQQT,2.650
11,KTINGSGSPHSKRAAQQT,3.838
12,KTINGSGSPHSKRALQQT,2.114
13,KTINGSGSPHSKRAMQQT,3.801
14,KTINGSGSPHSKRASQQT,2.173
15,KTINGSGSPHSKRATQQT,2.283
16,KTINGSGSPHSKRFLQQT,3.359
17,KTINGSGSPHSKRGLQQT,2.402
18,KTINGSGSPHSKRGTQQT,2.022
19,KTINGSGSPHSKRILQQT,2.801
20,KTINGSGSPHSKRINQQT,2.173
21,KTINGSGSPHSKRIVQQT (KTINGSGSPHSKRLVQQT),2.151
22,KTINGSGSPHSKRLAQQT,2.397
23,KTINGSGSPHSKRLLQQT,2.659
24,KTINGSGSPHSKRLMQQT,2.345

row,Sequence,Fold enrichment over TTM-001 [fold]
1,KTINGSGSPHSKRLPQQT,2.279
2,KTINGSGSPHSKRLRQQT,5.034
3,KTINGSGSPHSKRLTQQT,2.363
4,KTINGSGSPHSKRLYQQT,2.721
5,KTINGSGSPHSKRMSQQT,2.931
6,KTINGSGSPHSKRNGQQT,3.350
7,KTINGSGSPHSKRNLQQT,3.210
8,KTINGSGSPHSKRNVQQT,2.404
9,KTINGSGSPHSKRPFQQT,2.076
10,KTINGSGSPHSKRRLQQT,4.451
11,KTINGSGSPHSKRRNQQT,2.877
12,KTINGSGSPHSKRSFQQT,2.197
13,KTINGSGSPHSKRSIQQT,2.063
14,KTINGSGSPHSKRSLQQT,2.270
15,KTINGSGSPHSKRSMQQT,3.561
16,KTINGSGSPHSKRSNQQT,2.886
17,KTINGSGSPHSKRSWQQT,3.838
18,KTINGSGSPHSKRTAQQT,2.331
19,KTINGSGSPHSKRTFQQT,3.879
20,KTINGSGSPHSKRTLQQT,2.583
21,KTINGSGSPHSKRTPQQT,3.169
22,KTINGSGSPHSKRTSQQT,2.857
23,KTINGSGSPHSKRTYQQT,2.870
24,KTINGSGSPHSKRVGQQT,2.190

row,Sequence,Fold enrichment over TTM-001 [fold]
1,KTINGSGSPHSKRVLQQT,2.035
2,KTINGSGSPHSKRVPQQT,3.048
3,KTINGSGSPHSKRVSQQT,2.196
4,KTINGSGSPHSKSARQQT,2.067
5,KTINGSGSPHSKSCAQQT,2.348
6,KTINGSGSPHSKSERQQT,2.263
7,KTINGSGSPHSKSFRQQT,3.426
8,KTINGSGSPHSKSHRQQT,2.145
9,KTINGSGSPHSKSIRQQT,2.728
10,KTINGSGSPHSKSLKQQT,2.013
11,KTINGSGSPHSKSNKQQT,2.006
12,KTINGSGSPHSKSRHQQT,2.685
13,KTINGSGSPHSKSRRQQT,4.175
14,KTINGSGSPHSKSRWQQT,3.698
15,KTINGSGSPHSKSVRQQT,2.259
16,KTINGSGSPHSKTCLQQT,3.717
17,KTINGSGSPHSKTCSQQT,2.430
18,KTINGSGSPHSKTGRQQT,2.259
19,KTINGSGSPHSKTIRQQT,2.453
20,KTINGSGSPHSKTLRQQT,3.788
21,KTINGSGSPHSKTNRQQT,2.169
22,KTINGSGSPHSKTRAQQT,2.223
23,KTINGSGSPHSKTRLQQT,2.145
24,KTINGSGSPHSKTRMQQT,2.011

row,Sequence,Fold enrichment over TTM-001 [fold]
1,KTINGSGSPHSKTSRQQT,2.132
2,KTINGSGSPHSKVARQQT,2.136
3,KTINGSGSPHSKVGRQQT,3.255
4,KTINGSGSPHSKVIRQQT,2.760
5,KTINGSGSPHSKVKPQQT,2.778
6,KTINGSGSPHSKVPKQQT,2.924
7,KTINGSGSPHSKVRAQQT,2.412
8,KTINGSGSPHSKVRVQQT,2.034
9,KTINGSGSPHSKVSRQQT,2.108
10,KTINGSGSPHSKVTRQQT,2.397
11,KTINGSGSPHSKWLLQQT,4.521
12,KTINGSGSPHSKWLVQQT,2.333
13,KTINGSGSPHSKWPGQQT,2.477
14,KTINGSGSPHSKWSLQQT,2.453
15,KTINGSGSPHSKWTLQQT,2.039
16,KTINGSGSPHSKWVSQQT,2.089
17,KTINGSGSPHSKYPSQQT,3.114
18,KTINGSGSPHSLCQNQQT,2.285
19,KTINGSGSPHSLCSNQQT,3.413
20,KTINGSGSPHSLFANQQT,2.365
21,KTINGSGSPHSLFLNQQT,3.358
22,KTINGSGSPHSLFPNQQT,2.106
23,KTINGSGSPHSLFRNQQT,4.037
24,KTINGSGSPHSLLCNQQT,3.644

row,Sequence,Fold enrichment over TTM-001 [fold]
1,KTINGSGSPHSLLWNQQT,7.983
2,KTINGSGSPHSLLYNQQT,2.158
3,KTINGSGSPHSLRFNQQT,4.765
4,KTINGSGSPHSLRHNQQT,2.980
5,KTINGSGSPHSLRRNQQT,4.985
6,KTINGSGSPHSLRSNQQT,2.778
7,KTINGSGSPHSLRYNQQT,2.462
8,KTINGSGSPHSLSCNQQT,2.605
9,KTINGSGSPHSLSWNQQT,2.588
10,KTINGSGSPHSLTWNQQT,2.698
11,KTINGSGSPHSLVFNQQT,2.019
12,KTINGSGSPHSLWLNQQT,4.412
13,KTINGSGSPHSLWQNQQT,2.037
14,KTINGSGSPHSLWSNQQT,4.467
15,KTINGSGSPHSLYLNQQT,3.264
16,KTINGSGSPHSMFPNQQT,2.419
17,KTINGSGSPHSMLYNQQT,2.808
18,KTINGSGSPHSMYLNQQT,2.000
19,KTINGSGSPHSPLWNQQT,2.562
20,KTINGSGSPHSRGRNQQT,4.961
21,KTINGSGSPHSRKLNQQT,3.646
